Measured values from PMC3445516 (PLoS ONE, 2012).
Read-outs that look alike come from different tables or passages of the source.

Key:
Assay in all cases: Ambit kinase profiling, competition binding
PCTK1 = target: T1, PCTK1 (Homo sapiens, UniProt Q00536)
T1 construct: purchased Ambit Biosciences (KINOMEscan)
Description: (§1) Also included in the kinase profile are four isoforms of PKC (δ, ε, η, θ) and eight isoforms of CAMKs (CAMKIα, δ, γ; CAMKIIα, β, δ, γ; CAMK4).
(§2) The global kinase profiling experiment was performed by Ambit Biosciences.

CSNK1D = target: T2, CSNK1D (Homo sapiens, UniProt P48730)
T2 construct: purchased Ambit Biosciences (KINOMEscan)
T2 sequence (P48730 whole entry): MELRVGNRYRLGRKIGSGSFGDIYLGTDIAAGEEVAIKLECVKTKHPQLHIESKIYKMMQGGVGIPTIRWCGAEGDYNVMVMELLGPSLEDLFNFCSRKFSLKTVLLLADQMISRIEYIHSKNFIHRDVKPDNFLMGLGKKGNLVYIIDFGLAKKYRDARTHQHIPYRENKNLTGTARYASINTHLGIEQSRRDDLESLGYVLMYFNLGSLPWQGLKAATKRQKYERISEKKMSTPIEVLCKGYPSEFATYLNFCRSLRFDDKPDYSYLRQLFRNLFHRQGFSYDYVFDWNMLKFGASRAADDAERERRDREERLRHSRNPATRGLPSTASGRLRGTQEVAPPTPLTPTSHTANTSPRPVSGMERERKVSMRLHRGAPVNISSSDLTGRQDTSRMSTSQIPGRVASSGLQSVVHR
Description: as §1, §2

MST3 = target: T3, MST3 (Homo sapiens, UniProt Q9Y6E0); conditions: for % Competition: 10 µM
T3 construct: purchased Ambit Biosciences (KINOMEscan)
T3 sequence (Q9Y6E0 whole entry): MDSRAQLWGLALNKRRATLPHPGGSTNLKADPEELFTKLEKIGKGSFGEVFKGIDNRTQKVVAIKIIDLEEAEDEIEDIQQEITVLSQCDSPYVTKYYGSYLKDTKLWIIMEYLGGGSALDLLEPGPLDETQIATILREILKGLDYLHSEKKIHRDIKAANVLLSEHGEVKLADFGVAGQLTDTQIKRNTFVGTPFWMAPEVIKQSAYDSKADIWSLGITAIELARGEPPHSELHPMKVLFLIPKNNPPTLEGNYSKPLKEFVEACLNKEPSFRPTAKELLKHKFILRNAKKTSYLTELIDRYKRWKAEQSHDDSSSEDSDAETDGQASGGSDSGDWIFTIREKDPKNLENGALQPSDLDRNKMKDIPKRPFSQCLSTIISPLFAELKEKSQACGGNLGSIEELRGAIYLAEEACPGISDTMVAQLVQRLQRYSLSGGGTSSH
Description: as §1, §2

TNIK = target: T4, TNIK (Homo sapiens, UniProt Q9UKE5)
T4 construct: purchased Ambit Biosciences (KINOMEscan)
T4 sequence (Q9UKE5 whole entry): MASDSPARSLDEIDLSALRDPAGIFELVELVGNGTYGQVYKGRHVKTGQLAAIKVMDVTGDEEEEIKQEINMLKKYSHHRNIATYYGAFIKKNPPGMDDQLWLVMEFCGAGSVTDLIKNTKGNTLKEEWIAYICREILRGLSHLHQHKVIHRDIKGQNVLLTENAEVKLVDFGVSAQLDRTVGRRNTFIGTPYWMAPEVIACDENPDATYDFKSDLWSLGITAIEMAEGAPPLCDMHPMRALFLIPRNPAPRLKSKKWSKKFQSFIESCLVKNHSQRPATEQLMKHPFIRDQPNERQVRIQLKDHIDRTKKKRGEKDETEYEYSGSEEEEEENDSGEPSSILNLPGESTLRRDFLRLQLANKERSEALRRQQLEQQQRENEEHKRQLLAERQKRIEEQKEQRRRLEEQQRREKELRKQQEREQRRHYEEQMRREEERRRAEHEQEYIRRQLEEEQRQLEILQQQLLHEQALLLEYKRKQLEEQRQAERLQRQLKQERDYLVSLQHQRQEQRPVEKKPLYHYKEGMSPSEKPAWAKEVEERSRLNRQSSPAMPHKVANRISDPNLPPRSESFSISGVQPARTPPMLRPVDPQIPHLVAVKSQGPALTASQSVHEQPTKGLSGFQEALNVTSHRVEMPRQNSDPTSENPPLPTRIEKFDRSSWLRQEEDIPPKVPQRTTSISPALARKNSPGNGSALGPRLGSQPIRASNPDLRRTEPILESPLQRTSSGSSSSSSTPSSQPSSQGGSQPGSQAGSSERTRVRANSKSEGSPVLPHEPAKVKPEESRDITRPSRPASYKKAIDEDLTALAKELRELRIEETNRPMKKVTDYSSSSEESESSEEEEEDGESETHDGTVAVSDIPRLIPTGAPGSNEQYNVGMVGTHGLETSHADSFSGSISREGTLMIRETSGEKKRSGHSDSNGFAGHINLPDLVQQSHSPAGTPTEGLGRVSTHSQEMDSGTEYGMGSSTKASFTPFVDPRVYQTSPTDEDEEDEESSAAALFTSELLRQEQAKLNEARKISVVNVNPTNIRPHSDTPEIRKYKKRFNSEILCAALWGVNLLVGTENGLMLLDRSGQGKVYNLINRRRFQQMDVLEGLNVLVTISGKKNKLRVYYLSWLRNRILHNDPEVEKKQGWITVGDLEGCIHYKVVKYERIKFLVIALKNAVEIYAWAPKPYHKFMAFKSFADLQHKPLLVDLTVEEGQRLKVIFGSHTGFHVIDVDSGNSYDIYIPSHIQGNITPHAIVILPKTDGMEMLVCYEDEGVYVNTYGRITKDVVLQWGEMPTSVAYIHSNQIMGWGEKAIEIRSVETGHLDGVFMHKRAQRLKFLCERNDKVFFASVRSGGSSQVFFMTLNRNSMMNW
Description: as §1, §2

FLT3(D835Y) = target: T5, FLT3(D835Y) (Homo sapiens, UniProt P36888, D835Y)
T5 construct: purchased Ambit Biosciences (KINOMEscan)
T5 sequence (P36888 27-993 D835Y): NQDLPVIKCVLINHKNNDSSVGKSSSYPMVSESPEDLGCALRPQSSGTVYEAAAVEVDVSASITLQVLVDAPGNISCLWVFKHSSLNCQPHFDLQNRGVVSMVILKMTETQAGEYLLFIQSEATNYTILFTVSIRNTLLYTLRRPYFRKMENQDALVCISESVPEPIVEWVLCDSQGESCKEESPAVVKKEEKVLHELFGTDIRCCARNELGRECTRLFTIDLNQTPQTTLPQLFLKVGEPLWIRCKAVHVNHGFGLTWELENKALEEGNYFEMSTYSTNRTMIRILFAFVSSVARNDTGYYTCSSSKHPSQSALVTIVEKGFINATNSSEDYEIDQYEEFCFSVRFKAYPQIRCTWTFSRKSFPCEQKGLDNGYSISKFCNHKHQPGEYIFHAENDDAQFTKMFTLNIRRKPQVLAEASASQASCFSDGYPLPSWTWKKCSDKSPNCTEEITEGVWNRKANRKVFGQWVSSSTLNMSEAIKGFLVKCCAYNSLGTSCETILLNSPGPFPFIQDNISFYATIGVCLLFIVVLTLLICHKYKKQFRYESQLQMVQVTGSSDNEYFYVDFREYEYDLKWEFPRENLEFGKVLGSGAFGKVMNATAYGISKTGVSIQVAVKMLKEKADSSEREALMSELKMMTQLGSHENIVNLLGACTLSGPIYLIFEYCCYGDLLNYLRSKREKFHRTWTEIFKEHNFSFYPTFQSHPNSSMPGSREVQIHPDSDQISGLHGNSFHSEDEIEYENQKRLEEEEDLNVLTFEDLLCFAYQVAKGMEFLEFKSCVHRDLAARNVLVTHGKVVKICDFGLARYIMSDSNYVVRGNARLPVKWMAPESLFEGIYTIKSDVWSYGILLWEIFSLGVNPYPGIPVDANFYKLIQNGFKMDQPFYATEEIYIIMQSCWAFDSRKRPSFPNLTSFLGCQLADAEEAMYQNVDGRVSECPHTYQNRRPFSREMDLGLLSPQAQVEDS
Description: as §1, §2

[1] = target: T6, JAK1 (JH2 domain-pseudokinase) (Homo sapiens, UniProt P23458); conditions: for % Competition: JAK1 (JH2 domain-pseudokinase), 10 µM
T6 construct: JAK1 (JH2 domain-pseudokinase); purchased Ambit Biosciences (KINOMEscan)
T6 sequence (P23458 583-855 limits assumed): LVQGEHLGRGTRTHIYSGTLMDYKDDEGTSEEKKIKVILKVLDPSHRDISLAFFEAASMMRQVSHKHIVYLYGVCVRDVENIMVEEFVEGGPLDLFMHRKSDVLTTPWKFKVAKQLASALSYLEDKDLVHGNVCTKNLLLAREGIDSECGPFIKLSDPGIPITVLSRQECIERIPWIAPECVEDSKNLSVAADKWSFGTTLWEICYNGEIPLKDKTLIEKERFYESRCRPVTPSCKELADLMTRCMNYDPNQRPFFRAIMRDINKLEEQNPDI
Description: as §1, §2

PRKD2 = target: T7, PRKD2 (Homo sapiens, UniProt Q9BZL6)
T7 construct: purchased Ambit Biosciences (KINOMEscan)
T7 sequence (Q9BZL6 1-878): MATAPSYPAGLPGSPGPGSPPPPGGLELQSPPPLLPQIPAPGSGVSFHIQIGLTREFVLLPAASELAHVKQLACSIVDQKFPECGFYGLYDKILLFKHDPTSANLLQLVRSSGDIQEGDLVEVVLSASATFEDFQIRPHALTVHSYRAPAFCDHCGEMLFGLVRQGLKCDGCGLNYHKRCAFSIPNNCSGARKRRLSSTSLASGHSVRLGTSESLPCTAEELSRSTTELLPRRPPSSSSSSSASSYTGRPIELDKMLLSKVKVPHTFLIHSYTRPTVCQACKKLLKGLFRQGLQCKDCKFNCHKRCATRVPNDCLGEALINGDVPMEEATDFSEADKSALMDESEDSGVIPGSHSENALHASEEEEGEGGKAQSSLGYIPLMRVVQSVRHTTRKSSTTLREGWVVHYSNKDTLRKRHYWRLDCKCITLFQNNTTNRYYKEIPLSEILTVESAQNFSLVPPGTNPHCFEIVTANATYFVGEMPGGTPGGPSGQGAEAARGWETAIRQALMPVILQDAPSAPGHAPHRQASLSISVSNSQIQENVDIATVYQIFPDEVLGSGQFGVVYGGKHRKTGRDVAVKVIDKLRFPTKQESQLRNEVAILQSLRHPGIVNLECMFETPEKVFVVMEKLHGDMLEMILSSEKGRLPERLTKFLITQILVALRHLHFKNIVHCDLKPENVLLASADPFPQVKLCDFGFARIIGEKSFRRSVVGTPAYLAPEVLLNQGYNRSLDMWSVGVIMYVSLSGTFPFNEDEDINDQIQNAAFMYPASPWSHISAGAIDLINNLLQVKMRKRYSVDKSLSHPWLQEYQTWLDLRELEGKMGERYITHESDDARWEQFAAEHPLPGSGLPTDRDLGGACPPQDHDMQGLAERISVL
Description: as §1, §2

T1 sequence (Q00536 whole entry): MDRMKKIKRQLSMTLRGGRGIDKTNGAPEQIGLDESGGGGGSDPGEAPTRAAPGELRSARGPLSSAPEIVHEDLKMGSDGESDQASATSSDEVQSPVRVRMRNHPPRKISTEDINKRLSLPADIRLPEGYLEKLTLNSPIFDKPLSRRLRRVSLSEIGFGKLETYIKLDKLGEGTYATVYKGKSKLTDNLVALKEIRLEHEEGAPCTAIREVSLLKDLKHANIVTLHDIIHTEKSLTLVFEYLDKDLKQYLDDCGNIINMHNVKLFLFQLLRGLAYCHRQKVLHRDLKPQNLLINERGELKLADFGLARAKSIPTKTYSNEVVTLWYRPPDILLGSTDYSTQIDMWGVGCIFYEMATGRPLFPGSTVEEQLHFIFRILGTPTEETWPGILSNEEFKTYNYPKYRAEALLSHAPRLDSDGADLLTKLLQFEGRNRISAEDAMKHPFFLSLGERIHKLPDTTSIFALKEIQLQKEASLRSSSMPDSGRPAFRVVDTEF

Row | SMILES | inhibition at 10 µM (PCTK1; PCTK1, 10 µM, read-out: % Competition) [%] | inhibition at 10 µM (CSNK1D; CSNK1D, 10 µM, read-out: % Competition) [%] | % Competition (MST3) [%] | inhibition at 10 µM (TNIK; TNIK, 10 µM, read-out: % Competition) [%] | inhibition at 10 µM (FLT3(D835Y); FLT3(D835Y), 10 µM, read-out: % Competition) [%] | % Competition [1] [%] | inhibition at 10 µM (PRKD2; PRKD2 (PKD2), 10 µM, read-out: % Competition) [%] | inhibition at 10 µM (PCTK1; read-out: % Competition) [%] | inhibition at 10 µM (CSNK1D; read-out: % Competition) [%] | inhibition at 10 µM (TNIK; read-out: % Competition) [%] | inhibition at 10 µM (FLT3(D835Y); read-out: % Competition) [%] | inhibition at 10 µM (PRKD2; read-out: % Competition) [%] | inhibition at 10 µM (PCTK1; PCTK1, compound concentration 10 uM, read-out: Percent Competition) [%] | inhibition at 10 µM (CSNK1D; CSNK1D, compound concentration 10 uM, read-out: Percent Competition) [%] | Percent Competition (MST3; compound concentration 10 uM) [%] | inhibition at 10 µM (TNIK; TNIK, compound concentration 10 uM, read-out: Percent Competition) [%] | inhibition at 10 µM (FLT3(D835Y); FLT3(D835Y), compound concentration 10 uM, read-out: Percent Competition) [%] | Percent Competition ([1]; JAK1(JH2domain-pseudokinase), compound concentration 10 uM) [%] | inhibition at 10 µM (PRKD2; PRKD2, compound concentration 10 uM, read-out: Percent Competition) [%]
1 | Fc1ccc(-c2c(-c3ccncc3)[nH]c3nccnc23)cc1 [Compound 122] | 100 | 97 | 68 | 96 | 76 | 99 | 98 |  |  |  |  |  |  |  |  |  |  |  | 
2 | CC(O)CNc1cc(-c2[nH]c3cccnc3c2-c2ccc(F)cc2)ccn1 (stereo not drawn) [Compound 140] |  |  | <50 |  |  | 90 |  | < 50 | 96 | < 50 | < 50 | 99 |  |  |  |  |  |  | 
3 | Fc1ccc(-c2c(-c3ccncc3)[nH]c3nccnc23)cc1 [RO1155697-000-005] |  |  |  |  |  |  |  |  |  |  |  |  | 100 | 97 | 68 | 96 | 76 | 99 | 98
